Measurements as given in patent US20140275094A1, “METHOD FOR TREATING PULMONARY ARTERIAL HYPERTENSION IN A PATIENT NOT HAVING IDIOPATHIC PULMONARY FIBROSIS” (GILEAD SCIENCES, INC., priority 2012, published 2014).
pIC50: −log10 of the molar value.

What was measured:
[1] = molecular target: T1, P-glycoprotein (Pgp) (Homo sapiens, UniProt P08183); test: Inhibition of Pgp, transfected MDCKII cells; type: cell-based; details: human, transfected MDCKII cells
T1 construct: expressed in transfected cells; host or cells: Madin-Darby canine kidney strain II (MDCKII)
Procedure: Inhibition constants (IC50) were measured for human bile salt export pump (BSEP), sodium taurocholate cotransporting polypeptide (NTCP), multidrug resistance protein 2 (MRP2), P-glycoprotein (Pgp), breast cancer resistance protein (BCRP), organic anion-transporting polypeptide 1B1 (OATP1B1), and OATP1B3 in transfected cell-lines. Known inhibitors were used as positive controls.

[2] = system: patients with PAH (WHO Group 1); test: ARIES-2 12-week placebo-controlled study; type: in vivo, human
Procedure: Two 12-week, randomized, double-blind, placebo-controlled, multicenter studies were conducted in 393 patients with PAH (WHO Group 1). The two studies were identical in design except for the doses of ambrisentan and the geographic region of the investigational sites. ARIES-1 (Ambrisentan in Pulmonary Arterial Hypertension, Randomized, Double-Blind, Placebo-Controlled, Multicenter, Efficacy Studies) compared once-daily doses of 5 mg and 10 mg ambrisentan to placebo, […] In both studies, ambrisentan or placebo was added to current therapy, which could have included a combination of anticoagulants, diuretics, calcium channel blockers, or digoxin, but not epoprostenol, treprostinil, iloprost, bosentan, or sildenafil. The primary study endpoint was 6-minute walk distance. In addition, clinical worsening, WHO functional class, dyspnea, and SF-36® Health Survey were assessed.
(§1) Patients had idiopathic or heritable PAH (64%) or PAH associated with connective tissue diseases (32%), HIV infection (3%), or anorexigen use (1%). There were no patients with PAH associated with congenital heart disease.
(§2) Patients had WHO functional class I (2%), II (38%), III (55%), or IV (5%) symptoms at baseline. The mean age of patients was 50 years, 79% of patients were female, and 77% were Caucasian.
(§3) Clinical Worsening: Time to clinical worsening of PAH was defined as the first occurrence of death, lung transplantation, hospitalization for PAH, atrial septostomy, study withdrawal due to the addition of other PAH therapeutic agents or study withdrawal due to early escape. Early escape was defined as meeting two or more of the following criteria: a 20% decrease in the 6-minute walk distance; an increase in WHO functional class; worsening right ventricular failure; rapidly progressing cardiogenic, hepatic, or renal failure; or refractory systolic hypotension.

[3] = Ambrisentan in subjects who discontinued bosentan/sitaxsentan due to aminotransferase elevations (AMB-222, AMB-323); type: in vivo, human; details: prior ERA discontinued for aminotransferase >3×ULN
Description: They were enrolled in studies AMB-222 (n=36) and AMB-323 (n=27). […] The remaining subjects in these studies (a total of 4 subjects) did have an aminotransferase level>3×ULN and are included in Table 1.

[4] = system: patients with PAH (WHO Group 1); test: ARIES-1 12-week placebo-controlled study; type: in vivo, human; details: for Mean change from baseline in 6-minute walk distance / Placebo-adjusted mean change from baseline in 6-minute walk distance / Placebo-adjusted median change from baseline in 6-minute walk distance: 12 weeks; for Mean change from baseline in 6-minute walk distance: mean ± SD
Procedure: Two 12-week, randomized, double-blind, placebo-controlled, multicenter studies were conducted in 393 patients with PAH (WHO Group 1). The two studies were identical in design except for the doses of ambrisentan and the geographic region of the investigational sites. ARIES-1 (Ambrisentan in Pulmonary Arterial Hypertension, Randomized, Double-Blind, Placebo-Controlled, Multicenter, Efficacy Studies) compared once-daily doses of 5 mg and 10 mg ambrisentan to placebo, while ARIES-2 compared once-daily doses of 2.5 mg and 5 mg ambrisentan to placebo. In both studies, ambrisentan or placebo was added to current therapy, which could have included a combination of anticoagulants, diuretics, calcium channel blockers, or digoxin, but not epoprostenol, treprostinil, iloprost, bosentan, or sildenafil. The primary study endpoint was 6-minute walk distance. In addition, clinical worsening, WHO functional class, dyspnea, and SF-36® Health Survey were assessed.
as §1, §2, §3

[5] = system: patients with PAH; test: Long-term follow-up of the two pivotal studies and open-label extension; type: in vivo, human; details: 2.5, 5 or 10 mg once daily, N=383
Procedure: Long-term Treatment of PAH: In long-term follow-up of patients who were treated with ambrisentan (2.5 mg, 5 mg, or 10 mg once daily) in the two pivotal studies and their open-label extension (N=383), Kaplan-Meier estimates of survival at 1, 2, and 3 years were 93%, 85%, and 79%, respectively. Of the patients who remained on ambrisentan for up to 3 years, the majority received no other treatment for PAH.

[6] = all clinical trials combined; cited from earlier work
[7] = Cumulative incidence of treatment-emergent serum aminotransferase abnormalities in clinical trials; type: in vivo, human
Description: The ambrisentan clinical development program included placebo-controlled and non-placebo-controlled studies. One Phase 2 study (AMB-220) and two Phase 3 studies (AMB-320 and AMB-321) were completed at the time of the NDA submission. Three ongoing studies (AMB-220-E, AMB-222, and AMB-320/321-E) provided additional data in both the original NDA and the 4-month safety update, and data from one additional ongoing study (AMB-323) were included in the 4-month safety update.
The cumulative incidence of aminotransferase elevations by severity, summarized as a percentage of the cumulative number of subjects who received ambrisentan in clinical trials, is provided in Table 1. The cumulative incidence of aminotransferase elevations>3×ULN (upper limit of the normal range) accompanied by total bilirubin>2×ULN was 0.3% (2 subjects, both with alternative causes for the liver function test (LFT) abnormalities); the associated mean exposure to ambrisentan was 112.5 weeks (maximum, 341.0 weeks). In comparison, during the 12-week placebo controlled trials, 1 patient (1/132, 0.7%) receiving placebo had elevated aminotransferases (both alanine transaminase (ALT) and aspartate transaminase (AST) were >5×ULN) along with elevated total bilirubin (>2×ULN).

[8] = ARIES-2, 5 mg (N = 64), 12 weeks
[9] = ARIES-2, ambrisentan N = 127, 12-week treatment, intention-to-treat
[10] = ARIES-1, ambrisentan N = 134, 12-week treatment, intention-to-treat
[11] = >3 × ULN and total bilirubin > 2 × ULN, N = 707
[12] = Total > 3 × ULN, all subjects N = 707

T1 sequence (P08183 whole entry): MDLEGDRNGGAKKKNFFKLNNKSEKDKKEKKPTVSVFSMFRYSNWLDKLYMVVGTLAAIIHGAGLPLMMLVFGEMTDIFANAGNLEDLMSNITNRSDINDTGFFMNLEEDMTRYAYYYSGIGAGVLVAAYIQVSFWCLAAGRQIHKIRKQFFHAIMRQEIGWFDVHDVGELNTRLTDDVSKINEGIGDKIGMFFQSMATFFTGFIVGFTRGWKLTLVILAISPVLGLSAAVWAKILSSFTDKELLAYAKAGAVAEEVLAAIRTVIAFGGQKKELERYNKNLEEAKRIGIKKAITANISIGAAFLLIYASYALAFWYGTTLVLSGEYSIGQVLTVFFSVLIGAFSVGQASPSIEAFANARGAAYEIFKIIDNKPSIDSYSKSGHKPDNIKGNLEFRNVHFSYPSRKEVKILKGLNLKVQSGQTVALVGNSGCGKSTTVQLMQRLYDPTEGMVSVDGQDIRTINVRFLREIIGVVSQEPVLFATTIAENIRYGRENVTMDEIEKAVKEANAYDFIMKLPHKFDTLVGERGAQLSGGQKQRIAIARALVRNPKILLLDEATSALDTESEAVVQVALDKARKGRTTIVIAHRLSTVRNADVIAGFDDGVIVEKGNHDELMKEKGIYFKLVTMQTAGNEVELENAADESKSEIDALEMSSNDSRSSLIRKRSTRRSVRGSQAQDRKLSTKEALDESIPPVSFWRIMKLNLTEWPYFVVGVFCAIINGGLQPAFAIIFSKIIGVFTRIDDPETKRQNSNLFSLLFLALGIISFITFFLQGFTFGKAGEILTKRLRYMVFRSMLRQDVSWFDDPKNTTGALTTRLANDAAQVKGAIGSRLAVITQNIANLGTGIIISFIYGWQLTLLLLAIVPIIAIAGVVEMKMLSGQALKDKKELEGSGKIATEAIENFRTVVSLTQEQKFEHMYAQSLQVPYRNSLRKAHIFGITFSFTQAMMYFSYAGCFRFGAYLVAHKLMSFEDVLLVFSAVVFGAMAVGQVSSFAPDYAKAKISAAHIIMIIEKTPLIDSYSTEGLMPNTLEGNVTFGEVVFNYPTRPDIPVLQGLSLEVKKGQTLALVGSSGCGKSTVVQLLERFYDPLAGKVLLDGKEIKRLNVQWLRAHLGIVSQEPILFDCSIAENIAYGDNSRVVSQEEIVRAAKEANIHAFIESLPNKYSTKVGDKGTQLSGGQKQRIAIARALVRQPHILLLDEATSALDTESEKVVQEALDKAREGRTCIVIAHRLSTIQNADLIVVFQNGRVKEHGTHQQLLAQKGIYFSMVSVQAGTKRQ

COc1ccccc1Oc1c(NS(=O)(=O)c2ccc(C(C)(C)C)cc2)nc(-c2ncccn2)nc1OCCO [Bosentan] showed a pIC50 [1] of under 4.00.

In the case of COC(c1ccccc1)(c1ccccc1)[C@H](Oc1nc(C)cc(C)n1)C(=O)O [Ambrisentan, (25)-2-[(4,6-dimethylpyrimidin-2-yl)oxy]-3-methoxy-3,3-diphenylpropanoic acid], the “Placebo-adjusted mean change from baseline in 6-minute walk distance” value (“Placebo-adjusted mean change” below) [2, 8] was 32 meters, the “Placebo-adjusted median change from baseline in 6-minute walk distance” value (“Placebo-adjusted median change” below) [2, 8] was 30 meters and the “Mean change from baseline in 6-minute walk distance” value ([2]; ARIES-2, 5 mg (N = 64), 12 weeks, mean ± SD) was 22 ± 83 meters. The “Clinical worsening, %” value [2, 9] was 6%, the “Clinical worsening, no.” value [2, 9] was 8 and the “Time to clinical worsening, hazard ratio” value ([2]; ARIES-2, versus placebo) was 0.30. For the same molecule, the “subjects who did not experience aminotransferase elevations while receiving ambrisentan” value ([3]; AMB-222 (n=36)) was 97%, the “subjects who did not experience aminotransferase elevations while receiving ambrisentan” value ([3]; AMB-323 (n=27)) was 89% and the “Mean change from baseline in 6-minute walk distance” value ([4]; ARIES-1, 5 mg once daily (N = 67)) was 23 ± 83 meters. The “Placebo-adjusted mean change” value ([4]; ARIES-1, 5 mg) was 31 meters, the “Placebo-adjusted median change” value ([4]; ARIES-1, 5 mg) was 27 meters and the “Mean change from baseline in 6-minute walk distance” value ([4]; ARIES-1, 10 mg once daily (N = 67)) was 44 ± 63 meters. The “Placebo-adjusted mean change” value ([4]; ARIES-1, 10 mg) was 51 meters, the “Placebo-adjusted median change” value ([4]; ARIES-1, 10 mg) was 39 meters and the “Clinical worsening, %” value [4, 10] was 3%. For the same molecule, the “Clinical worsening, no.” value [4, 10] was 4, the “Time to clinical worsening, hazard ratio” value ([4]; ARIES-1, versus placebo) was 0.28 and the “Kaplan-Meier estimate of survival” value ([5]; at 1 year) was 93%. The “Kaplan-Meier estimate of survival” value ([5]; at 2 years) was 85%, the “Kaplan-Meier estimate of survival” value ([5]; at 3 years) was 79% and the “1-year risk of significant aminotransferase abnormalities” value [6] was under 3%. The “ALT/AST elevations, patient number” value ([7]; >3 to ≦5 × ULN, N = 707) was 25, the “ALT/AST elevations, patients (%)” value ([7]; >3 to ≦5 × ULN, N = 707) was “(3.5) %” and the “ALT/AST elevations, patient number” value [7, 11] was 2. For the same molecule, the “ALT/AST elevations, patients (%)” value [7, 11] was “(0.3) %”, the “ALT/AST elevations, patients (%)” value ([7]; >3 × ULN and total bilirubin > 2 × ULN, N = 707, listed as ambrisentan) was 0.3% and the “ALT/AST elevations, patient number” value ([7]; >5 to ≦8 × ULN, N = 707) was 1. For the same molecule, the “ALT/AST elevations, patients (%)” value ([7]; >5 to ≦8 × ULN, N = 707) was “(0.1) %”, the “ALT/AST elevations, patient number” value ([7]; >8 × ULN, N = 707) was 9 and the “ALT/AST elevations, patients (%)” value ([7]; >8 × ULN, N = 707) was “(1.3) %”. The “ALT/AST elevations, patient number” value [7, 12] was 35 and the “ALT/AST elevations, patients (%)” value [7, 12] was “(5.0) %”.
